The source made the active and inactive calls. The calls are words filed in the database; no cut-off is given here.
What was measured:
[1] = target: T1, Alpha-2B adrenergic receptor (Homo sapiens, UniProt P18089); assay: Agonist activity at human adrenergic alpha2B receptor expressed in HEK293 cells coexpressing Gqi5 protein by FLIPR assay; format: functional, cell-based
T1 sequence (P18089 whole entry): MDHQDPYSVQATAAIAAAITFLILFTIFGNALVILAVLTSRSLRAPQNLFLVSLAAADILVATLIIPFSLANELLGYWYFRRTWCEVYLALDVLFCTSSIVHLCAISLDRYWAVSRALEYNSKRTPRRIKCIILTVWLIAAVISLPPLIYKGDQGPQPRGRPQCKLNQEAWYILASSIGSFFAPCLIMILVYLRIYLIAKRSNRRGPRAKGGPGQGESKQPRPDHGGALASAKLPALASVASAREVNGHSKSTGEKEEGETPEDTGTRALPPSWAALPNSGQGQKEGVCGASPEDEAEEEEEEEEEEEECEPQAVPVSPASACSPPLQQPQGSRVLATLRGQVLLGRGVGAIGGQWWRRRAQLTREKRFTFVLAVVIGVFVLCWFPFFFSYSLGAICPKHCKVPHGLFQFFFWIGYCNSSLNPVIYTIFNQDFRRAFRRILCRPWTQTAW

[2] = target: T2, Alpha-2B adrenergic receptor (Homo sapiens) (UniProt P18089); assay: Agonist activity at human adrenergic alpha2B receptor expressed in HEK293 cells coexpressing Gqi5 protein up to 83 uM by FLIPR assay; format: functional, cell-based
T2 sequence (whole entry): T1 sequence (P18089 whole entry)

Compound NC1=N[C@H]2n3c(cc(Br)c3Br)C(=O)N3CCC[C@]23N1 [DIBROMOPHAKELLIN] has an EC50 [1] of 4.2 µM.
With NC1=N[C@]23CCCN2C(=O)c2cccn2[C@@H]3N1 the Activity [2] was “inactive”.
In the case of NC1=N[C@]23CCCN2C(=O)c2cc(Br)c(-c4ccccc4)n2[C@@H]3N1, the Activity [2] is reported as “inactive”.
For NC1=N[C@]23CCCN2C(=O)c2cc(-c4ccccc4)c(-c4ccccc4)n2[C@@H]3N1, the Activity [2] was “inactive”.
For NC1=N[C@]23CCCN2C(=O)c2cc(Br)cn2[C@@H]3N1, the Activity [2] was “inactive”.
